# Source: US4267192A, “Method for treating inflammation” (priority 1980, dated 1981)
# Read-outs that look alike come from different tables or passages of the source.
# What was measured:
# [1] = test system: polyarthritis induced by Mycobacterium butyricum or tuberculosis in rats; conditions: rat; for Increase in Left Paw Volume (ml.) 0-16 days / Increase in Right Paw Volume (ml.) 0-4 days: mean ± S.E.
# Protocol: (§2) Polyarthritis is induced in groups of 6-10 Sprague-Dawley rats weighing between 180-220 g. by a subcutaneous injection into the right paw of dessicated Mycobacterium butyricum or tuberculosis (0.5 mg/0.1 ml.) suspended in light mineral oil. […] Both hind paw volumes (ml.) are measured by mercury plethysmograph on day 0 or at the time of injection of the complete adjuvant. Increases in paw volume (viz. edema) are determined for both paws on days 4 and 16. The change in body weight from day 0 to day 16 is also calculated. Statistical analysis of differences in paw edemas and body weight is performed by using the unpaired. Student's t-test.
# [2] = background; in words; cited from earlier work
# [3] = test system: carrageenan-induced edema in the hind paw of the rat; experiment: rat carrageenan edema test (hind paw); format: in vivo, rat (male Sprague-Dawley); conditions: for Change in paw volume (ml) from 0-3 hr: mean ± S.E.; for % Change in paw edema: vs control
# Protocol: (§1) Vehicle alone is administered as a control. Sixty minutes after drug administration edema is induced by an injection of 0.1 ml. of a 1% carrageenan solution is saline into the subplantar tissue of the rat's right hind paw. Two minutes later, paw volume is measured volumetrically with a plethysmograph and again 3 hours later. The mean volume of swelling for the control group is calculated and compared to the test groups. Percent change in paw edema is calculated and analyzed statistically (unpaired, Student's t-test).
# [4] = test system: carrageenan-induced edema in the hind paw of normal and adrenalectomized rats; experiment: carrageenan paw edema in normal and adrenalectomized rats; format: in vivo, rat
# Protocol: as §1
# Normal rats received the same doses as adrenalectomized rats.
# [5] = test system: polyarthritis induced by Mycobacterium butyricum or tuberculosis in rats; conditions: rat; cited from earlier work
# [6] = test system: rat stomach (gastric ulcers, gastric swelling); conditions: especially in long-term therapy; in words; cited from earlier work
# prostaglandin synthetase = target: T1, prostaglandin synthetase (Ovis aries, UniProt P05979); conditions: in words; cited from earlier work
# T1 sequence (P05979 25-600): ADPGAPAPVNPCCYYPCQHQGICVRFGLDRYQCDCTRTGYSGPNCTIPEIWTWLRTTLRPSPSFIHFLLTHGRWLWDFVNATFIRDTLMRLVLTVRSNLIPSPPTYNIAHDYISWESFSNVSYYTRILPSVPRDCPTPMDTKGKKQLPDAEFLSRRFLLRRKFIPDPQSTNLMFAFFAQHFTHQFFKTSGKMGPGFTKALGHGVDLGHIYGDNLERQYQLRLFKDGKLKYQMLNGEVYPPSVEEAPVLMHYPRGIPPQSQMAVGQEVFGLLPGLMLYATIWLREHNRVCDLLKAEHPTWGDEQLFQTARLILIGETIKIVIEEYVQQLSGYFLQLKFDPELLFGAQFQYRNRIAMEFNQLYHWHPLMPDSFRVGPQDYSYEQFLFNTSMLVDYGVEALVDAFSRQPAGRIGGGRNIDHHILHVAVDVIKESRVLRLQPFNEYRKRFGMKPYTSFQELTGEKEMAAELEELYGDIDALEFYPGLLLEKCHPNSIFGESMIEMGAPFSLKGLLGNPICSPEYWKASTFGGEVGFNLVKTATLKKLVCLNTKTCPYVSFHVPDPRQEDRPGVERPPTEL
# [7] = test system: rat stomach (gastric ulcers, gastric swelling); format: in vivo, rat (male Charles River, Sprague-Dawley); conditions: for Number of Animals With Gastric Swelling / Number of Animals With Gastric Ulcers: rat, 4 hours after dosing
# Protocol: The rats are divided into groups 6-10 and dosed by the oral route with test compound, on a mg/kg. body weight basis, or vehicle control, 0.5% carboxymethylcellulose, in a volume of 3 ml. per rat. Four hours after dosing, the rats are decapitated and exsanguinated. Stomachs are removed and examined for gastric swelling and then opened and washed for visual inspection of gastric ulcers. Only one lesion or gastric bleeding is necessary for a positive response. Data is reported quantally.
# [8] = test system: prostaglandin synthesis in gastric mucosa; conditions: background; in words; cited from earlier work
# [9] = test system: established adjuvant arthritis in rats; experiment: established adjuvant arthritis, dosing on days 16, 17 and 18; conditions: rat
# Protocol: as §2
# The changes in left paw edema are measured at the end of 19 days, 23 days and 30 days.
# [10] = oral 25.0 mg/kg daily, Table 3 group b
# [11] = oral 270 mg/kg, Table 1 group d
# [12] = Adrenalectomized Rats, oral 300 mg/kg
# [13] = oral 120 mg/kg, Table 1 group f
# [14] = oral 240 mg/kg, Table 1 group f
# [15] = oral 480 mg/kg, Table 1 group f
# [16] = Adrenalectomized Rats, oral 5 mg/kg
# [17] = oral 0.1 mg/kg daily, Table 3 group a
# [18] = oral 0.3 mg/kg daily, Table 3 group a
# [19] = oral 1.0 mg/kg daily, Table 3 group a
# [20] = oral 3.0 mg/kg daily, Table 3 group a
# [21] = oral 0.33 mg/kg, days 16, 17, 18
# [22] = oral 1.00 mg/kg, days 16, 17, 18
# [23] = oral 3.00 mg/kg, days 16, 17, 18
# [24] = oral 180 mg/kg, Table 1 group e
smiles,measurement,setting,value
"CCCCC1C(=O)N(c2ccccc2)N(c2ccccc2)C1=O [Phenylbutazone, phenylbutazone, reference compound]",% Change of Left Paw Edema at Day 16,[1]; [10],-39%
same,% Change of Right Paw Edema at Day 4,[1]; [10],-44%
same,Change In Body Weight (mean ± S.E.) 0-16 days,[1]; [10],24.0 ± 6.3
same,Increase in Left Paw Volume (ml.) 0-16 days,[1]; [10],0.45 ± .13 mL
same,Increase in Right Paw Volume (ml.) 0-4 days,[1]; [10],1.04 ± .05 mL
same,bone marrow depression,[2],can cause bone marrow depression
"CC(=O)Oc1ccccc1C(=O)O [Aspirin, aspirin, reference compound]",estimated ED50 (carrageenan paw edema),[3]; oral,~110 mg/kg
same,Change in paw volume (ml) from 0-3 hr,"[3]; oral 30 mg/kg, Table 1 group d",0.63 ± 0.02 mL
same,% Change in paw edema,"[3]; oral 30 mg/kg, Table 1 group d",-28%
same,Change in paw volume (ml) from 0-3 hr,"[3]; oral 90 mg/kg, Table 1 group d",0.54 ± 0.04 mL
same,% Change in paw edema,"[3]; oral 90 mg/kg, Table 1 group d",-39%
same,Change in paw volume (ml) from 0-3 hr,[3]; [11],0.29 ± 0.10 mL
same,% Change in paw edema,[3]; [11],-67%
same,% Inhibition,[4]; [12],34%
same,Edema (ml) ± S.E.,[4]; [12],0.64 ± .04 mL
same,animals died,"[4]; Adrenalectomized Rats, oral 300 mg/kg, footnote a",1/6
same,% Inhibition,"[4]; Normal Rats, oral 300 mg/kg",44%
same,Mean Edema (ml) ± S.E.,"[4]; Normal Rats, oral 300 mg/kg",0.52 ± .07 mL
same,"ED50 (adjuvant arthritis test), has been assessed",[5],approximately 140 mg/kg
same,gastric ulcerogenicity,[6],proven gastric ulcerogens
same,appreciable effects on prostaglandin synthetase activity,prostaglandin synthetase,appreciable effects on prostaglandin synthetase activity
"COC(=O)C=C1c2ccccc2C=Cc2ccccc21 [MDCHA, Methyl(5H-dibenzo[a,d]cyclohepten-5-ylidene)acetate]",Change in paw volume (ml) from 0-3 hr,"[3]; oral 60 mg/kg, Table 1 group f",0.68 ± 0.08 mL
same,% Change in paw edema,"[3]; oral 60 mg/kg, Table 1 group f",-8%
same,Change in paw volume (ml) from 0-3 hr,[3]; [13],0.59 ± 0.08 mL
same,% Change in paw edema,[3]; [13],-20%
same,Change in paw volume (ml) from 0-3 hr,[3]; [14],0.68 ± 0.10 mL
same,% Change in paw edema,[3]; [14],-8%
same,Change in paw volume (ml) from 0-3 hr,[3]; [15],0.59 ± 0.07 mL
same,% Change in paw edema,[3]; [15],-20%
"COc1ccc2c(c1)c(CC(=O)O)c(C)n2C(=O)c1ccc(Cl)cc1 [Indomethacin, indomethacin, reference compound]",estimated ED50 (carrageenan paw edema),[3]; oral,~2.7 mg/kg
same,Change in paw volume (ml) from 0-3 hr,"[3]; oral 1 mg/kg, Table 1 group b",0.65 ± 0.06 mL
same,% Change in paw edema,"[3]; oral 1 mg/kg, Table 1 group b",-36%
same,Change in paw volume (ml) from 0-3 hr,"[3]; oral 3 mg/kg, Table 1 group b",0.50 ± 0.07 mL
same,% Change in paw edema,"[3]; oral 3 mg/kg, Table 1 group b",-51%
same,Change in paw volume (ml) from 0-3 hr,"[3]; oral 5 mg/kg, Table 1 group e",0.54 ± 0.08 mL
same,% Change in paw edema,"[3]; oral 5 mg/kg, Table 1 group e",-53%
same,Change in paw volume (ml) from 0-3 hr,"[3]; oral 9 mg/kg, Table 1 group b",0.32 ± 0.02 mL
same,% Change in paw edema,"[3]; oral 9 mg/kg, Table 1 group b",-69%
same,% Inhibition,[4]; [16],59%
same,Edema (ml) ± S.E.,[4]; [16],0.42 ± .09 mL
same,% Inhibition,"[4]; Normal Rats, oral 5 mg/kg",60%
same,Mean Edema (ml) ± S.E.,"[4]; Normal Rats, oral 5 mg/kg",0.42 ± .09 mL
same,effects on the gastric tract,[7]; dosage levels indicated for treatment of inflammatory conditions,significant effects on the gastric tract
same,Number of Animals With Gastric Swelling,[7]; oral 2.5 mg/kg,0/10
same,Number of Animals With Gastric Ulcers,[7]; oral 2.5 mg/kg,0/9
same,Number of Animals With Gastric Swelling,[7]; oral 5.0 mg/kg,0/10
same,Number of Animals With Gastric Ulcers,[7]; oral 5.0 mg/kg,9/10
same,Number of Animals With Gastric Swelling,[7]; oral 10.0 mg/kg,0/10
same,Number of Animals With Gastric Ulcers,[7]; oral 10.0 mg/kg,10/10
same,% Change of Left Paw Edema at Day 16,[1]; [17],+5.1%
same,% Change of Right Paw Edema at Day 4,[1]; [17],-31%
same,Change In Body Weight (mean ± S.E.) 0-16 days,[1]; [17],16.9 ± 9.0
same,Increase in Left Paw Volume (ml.) 0-16 days,[1]; [17],0.82 ± .12 mL
same,Increase in Right Paw Volume (ml.) 0-4 days,[1]; [17],1.07 ± .15 mL
same,% Change of Left Paw Edema at Day 16,[1]; [18],-33%
same,% Change of Right Paw Edema at Day 4,[1]; [18],-30%
same,Change In Body Weight (mean ± S.E.) 0-16 days,[1]; [18],25.7 ± 7.8
same,Increase in Left Paw Volume (ml.) 0-16 days,[1]; [18],0.52 ± .07 mL
same,Increase in Right Paw Volume (ml.) 0-4 days,[1]; [18],1.09 ± .06 mL
same,% Change of Left Paw Edema at Day 16,[1]; [19],-55%
same,% Change of Right Paw Edema at Day 4,[1]; [19],-42%
same,Change In Body Weight (mean ± S.E.) 0-16 days,[1]; [19],36.5 ± 7.9
same,Increase in Left Paw Volume (ml.) 0-16 days,[1]; [19],0.35 ± .03 mL
same,Increase in Right Paw Volume (ml.) 0-4 days,[1]; [19],0.90 ± .11 mL
same,% Change of Left Paw Edema at Day 16,[1]; [20],-65%
same,% Change of Right Paw Edema at Day 4,[1]; [20],-37%
same,Change In Body Weight (mean ± S.E.) 0-16 days,[1]; [20],49.8 ± 6.2
same,Increase in Left Paw Volume (ml.) 0-16 days,[1]; [20],0.27 ± .03 mL
same,Increase in Right Paw Volume (ml.) 0-4 days,[1]; [20],0.99 ± .05 mL
same,estimated ED50 (adjuvant arthritis test),"[1]; oral, daily",~0.9 mg/kg
same,gastric ulcerogenicity,[6],proven gastric ulcerogens
same,inhibitory effect on prostaglandin synthesis in gastric mucosa,[8],marked inhibitory effect on prostaglandin synthesis in gastric mucosa
same,appreciable effects on prostaglandin synthetase activity,prostaglandin synthetase,appreciable effects on prostaglandin synthetase activity
same,rats died by the 23rd day,"[9]; 3.00 mg/kg, days 16, 17 and 18",six out of ten rats had died
same,"% Change from Control, left paw edema (day 0-19)",[9]; [21],-31%
same,"% Change from Control, left paw edema (day 0-23)",[9]; [21],+6%
same,"% Change from Control, left paw edema (day 0-30)",[9]; [21],-6%
same,Increase in left paw edema ml. (day 0-19),[9]; [21],0.70 ± 0.11 mL
same,Increase in left paw edema ml. (day 0-23),[9]; [21],1.02 ± 0.14 mL
same,Increase in left paw edema ml. (day 0-30),[9]; [21],1.41 ± 0.20 mL
same,"% Change from Control, left paw edema (day 0-19)",[9]; [22],-40%
same,"% Change from Control, left paw edema (day 0-23)",[9]; [22],+4%
same,"% Change from Control, left paw edema (day 0-30)",[9]; [22],-22%
same,Increase in left paw edema ml. (day 0-19),[9]; [22],0.62 ± 0.05 mL
same,Increase in left paw edema ml. (day 0-23),[9]; [22],1.00 ± 0.06 mL
same,Increase in left paw edema ml. (day 0-30),[9]; [22],1.18 ± 0.10 mL
same,"% Change from Control, left paw edema (day 0-19)",[9]; [23],-60%
same,Increase in left paw edema ml. (day 0-19),[9]; [23],0.41 ± 0.06 mL
same,deaths (day 0-23),[9]; [23],6/10
same,deaths (day 0-30),[9]; [23],6/10
"CCOC(=O)C=C1c2ccccc2C=Cc2ccccc21 [EDCHA, ethyl(5H-dibenzo[a,d]cyclohepten-5-ylidene)acetate]",oral doses that inhibit carrageenan paw edema,[3]; oral,10 to 180 mg/kg
same,Change in paw volume (ml) from 0-3 hr,"[3]; oral 20 mg/kg, Table 1 group e",1.11 ± 0.08 mL
same,% Change in paw edema,"[3]; oral 20 mg/kg, Table 1 group e",-4%
same,Change in paw volume (ml) from 0-3 hr,"[3]; oral 60 mg/kg, Table 1 group e",0.98 ± 0.06 mL
same,% Change in paw edema,"[3]; oral 60 mg/kg, Table 1 group e",-15%
same,Change in paw volume (ml) from 0-3 hr,[3]; [24],0.87 ± 0.04 mL
same,% Change in paw edema,[3]; [24],-25%
